The values that follow come from patent publication US20210198204A1, “PRODRUGS OF KALLIKREIN INHIBITORS” (BioCryst Pharmaceuticals, Inc., priority 2016, published 2021).

One series in a line: Plasma pharmacokinetics of the parent compound after a single oral dose of prodrug. In kind it is in vivo. To be noted: single oral dose 10 mg/kg, fasted male Sprague Dawley rats; plasma analyzed for the parent compound; study duration 8 h. As to the method:
Plasma pharmacokinetics of compounds was determined using three male Sprague Dawley rats following a single oral dose administration. All animals were placed in a rat metabolic cage, isolated, and fasted approximately 15 hours prior to dosing. Identifying markers were placed on each animal. Each animal was weighed prior to dose administration. Animals were administered orally with a solution formulation of test compound either in water or a combination of water/propylene glycol, at a dose of 10 mg/kg. Gavage needles were attached to syringes and filled with appropriate amount of test article to be dosed. Blood samples (approximately 500 μL) were collected from three rats at pre-dose (time 0), 0.5, 1, 2, 4, 8, 12 and 24 hr, respectively, depending on study duration. Samples were collected into labeled micro centrifuge tubes containing (heparin solution) as an anticoagulant. Plasma was immediately harvested from the blood by centrifugation at 14,000 rpm for 3 min at 4° C., and stored below −70° C. until bioanalysis. Individual plasma samples were analyzed for the parent compound, 3-[2-(4-carbamimidoyl-phenylcarbamoyl)-5-methoxy-4-vinyl-phenyl]-6-(cyclopropylmethyl-carbamoyl)-pyridine-2-carboxylic acid. As shown in Table-1, the test compounds yielded varying degrees of exposure to the parent compound. The test compounds generally provided for improved bioavailability of the parent compound as compared to dosing of the parent compound in aqueous solutions.
For `C=Cc1cc(C(=O)Nc2ccc(C(=N)N)cc2)c(-c2ccc(C(=O)NCC3CC3)nc2C(=O)OC[C@H](C)OC(=O)[C@@H](N)C(C)C)cc1OC` (single isomer, unassigned) [Compound 18f], the “AUC0-last hour (area under the curve)” value is on record as “A (A = 0-1,000 ng/mL)”.

Consider `C=Cc1cc(C(=O)Nc2ccc(C(=N)N)cc2)c(-c2ccc(C(=O)NCC3CC3)nc2C(=O)OC[C@@H](C)OC(=O)[C@@H](N)C(C)C)cc1OC` (single isomer, unassigned) [Compound 18g], for which the “AUC0-last hour (area under the curve)” value is listed as “A (A = 0-1,000 ng/mL)”.

In the case of `C=Cc1cc(C(=O)Nc2ccc(C(=N)N)cc2)c(-c2ccc(C(=O)NCC3CC3)nc2C(=O)OC)cc1OC.CS(=O)(=O)O` [Compound 1o, Methyl 3-[2-(4-carbamimidoylphenylcarbamoyl)-5-methoxy-4-vinylphenyl]-6-(cyclopropylmethylcarbamoyl)pyridine-2-carboxylate methanesulfonate], the “AUC0-last hour (area under the curve)” value is given as “A (A = 0-1,000 ng/mL)”.

`C=Cc1cc(C(=O)Nc2ccc(C(=N)NC(=O)OCCCCCC)cc2)c(-c2ccc(C(=O)NCC3CC3)nc2C(=O)OCCN2CCOCC2)cc1OC.Cl` [Compound 6a, 2-morpholinoethyl 6-((cyclopropylmethyl)carbamoyl)-3-(2-((4-(N-((hexyloxy)carbonyl)carbamimidoyl)phenyl)carbamoyl)-5-methoxy-4-vinylphenyl)picolinate hydrochloride]: the “AUC0-last hour (area under the curve)” value is listed as “A (A = 0-1,000 ng/mL)”.

As for `C=Cc1cc(C(=O)Nc2ccc(C(N)=NO)cc2)c(-c2ccc(C(=O)NCC3CC3)nc2C(=O)O)cc1OC` [Compound 9c, 6-((cyclopropylmethyl)carbamoyl)-3-(2-((4-(N′-hydroxycarbamimidoyl)phenyl)carbamoyl)-5-methoxy-4-vinylphenyl)picolinic acid], the “AUC0-last hour (area under the curve)” value was “A (A = 0-1,000 ng/mL)”.

`C=Cc1cc(C(=O)Nc2ccc(C(=N)N)cc2)c(-c2ccc(C(=O)NCC3CC3)nc2C(=O)OCC(C)OC(=O)[C@@H](N)C(C)C)cc1OC` (stereo partly drawn) [Compound 18e, 2-(((S)-2-amino-3-methylbutanoyl)oxy)propyl 3-(2-((4-carbamimidoylphenyl)carbamoyl)-5-methoxy-4-vinylphenyl)-6-((cyclopropylmethyl)carbamoyl)picolinate]: the “AUC0-last hour (area under the curve)” value is listed as “A (A = 0-1,000 ng/mL)”.

Take `C=Cc1cc(C(=O)Nc2ccc(C(=N)NC(=O)OC(C)C)cc2)c(-c2ccc(C(=O)NCC3CC3)nc2C(=O)OC)cc1OC` [Compound 20b, methyl 6-((cyclopropylmethyl)carbamoyl)-3-(2-((4-(N-(isopropoxycarbonyl)carbamimidoyl)phenyl)carbamoyl)-5-methoxy-4-vinylphenyl)picolinate]: the “AUC0-last hour (area under the curve)” value is listed as “A (A = 0-1,000 ng/mL)”.

Take `C=Cc1cc(C(=O)Nc2ccc(C(=N)N)cc2)c(-c2ccc(C(=O)NCC3CC3)nc2C(=O)OC(C)OC(=O)C(C)(C)C)cc1OC` (stereo not drawn) [Compound 22d, 1-(pivaloyloxy)ethyl 3-(2-((4-carbamimidoylphenyl)carbamoyl)-5-methoxy-4-vinylphenyl)-6-((cyclopropylmethyl)carbamoyl)picolinate]: the “AUC0-last hour (area under the curve)” value is given as “A (A = 0-1,000 ng/mL)”.

As to `C=Cc1cc(C(=O)Nc2ccc(C(=N)N)cc2)c(-c2ccc(C(=O)NCC3CC3)nc2C(=O)O)cc1OC` [Compound 23e, 3-(2-((4-carbamimidoylphenyl)carbamoyl)-5-methoxy-4-vinylphenyl)-6-((cyclopropylmethyl)carbamoyl)picolinic acid], the “AUC0-last hour (area under the curve)” value is given as “B (B = 1,001-10,000 ng/mL)”.

With `C=Cc1cc(C(=O)Nc2ccc(C(=N)NC(=O)OCCCCCC)cc2)c(-c2ccc(C(=O)NCC3CC3)nc2C(=O)O)cc1OC` [Compound 24c, 6-((cyclopropylmethyl)carbamoyl)-3-(2-((4-(N-((hexyloxy)carbonyl)carbamimidoyl)phenyl)carbamoyl)-5-methoxy-4-vinylphenyl)picolinic acid], the “AUC0-last hour (area under the curve)” value is on record as “A (A = 0-1,000 ng/mL)”.

On to `C=Cc1cc(C(=O)Nc2ccc(C(=N)NC(=O)OCC)cc2)c(-c2ccc(C(=O)NCC3CC3)nc2C(=O)OCc2oc(=O)oc2C)cc1OC` [Compound 34a, (5-methyl-2-oxo-1,3-dioxol-4-yl)methyl 6-((cyclopropylmethyl)carbamoyl)-3-(2-((4-(N-(ethoxycarbonyl)carbamimidoyl)phenyl)carbamoyl)-5-methoxy-4-vinylphenyl)picolinate], for which the “AUC0-last hour (area under the curve)” value is listed as “B (B = 1,001-10,000 ng/mL)”.

The series is the same for the next values; noted with them: single oral dose 10 mg/kg, fasted male Sprague Dawley rats; plasma analyzed for the parent compound; study duration 12 h.
`C=Cc1cc(C(=O)Nc2ccc(C(=N)N)cc2)c(-c2ccc(C(=O)NCC3CC3)nc2C(=O)OCCN2CCOCC2)cc1OC.Cl` [Compound 2d, 2-morpholinoethyl 3-(2-((4-carbamimidoylphenyl)carbamoyl)-5-methoxy-4-vinylphenyl)-6-((cyclopropylmethyl)carbamoyl)picolinate hydrochloride]: the “AUC0-last hour (area under the curve)” value is “A (A = 0-1,000 ng/mL)”.

Consider `C=Cc1cc(C(=O)Nc2ccc(C(=N)N)cc2)c(-c2ccc(C(=O)NCC3CC3)nc2C(=O)OCOC(=O)[C@@H](N)C(C)C)cc1OC.O=C(O)C(F)(F)F` [Compound 10e, (S)-((2-amino-3-methylbutanoyl)oxy)methyl 3-(2-((4-carbamimidoylphenyl)carbamoyl)-5-methoxy-4-vinylphenyl)-6-((cyclopropylmethyl)carbamoyl)picolinate trifluoroacetate], for which the “AUC0-last hour (area under the curve)” value is listed as “B (B = 1,001-10,000 ng/mL)”.

As for `C=Cc1cc(C(=O)Nc2ccc(C(=N)N)cc2)c(-c2ccc(C(=O)NCC3CC3)nc2C(=O)OCOC(=O)OC(C)C)cc1OC` [Compound 14d, ((isopropoxycarbonyl)oxy)methyl 3-(2-((4-carbamimidoylphenyl)carbamoyl)-5-methoxy-4-vinylphenyl)-6-((cyclopropylmethyl)carbamoyl)picolinate], the “AUC0-last hour (area under the curve)” value is given as “A (A = 0-1,000 ng/mL)”.

Consider `C=Cc1cc(C(=O)Nc2ccc(C(=N)N)cc2)c(-c2ccc(C(=O)NCC3CC3)nc2C(=O)OCOC(=O)C(C)(C)C)cc1OC` [Compound 15d, (pivaloyloxy)methyl 3-(2-((4-carbamimidoylphenyl)carbamoyl)-5-methoxy-4-vinylphenyl)-6-((cyclopropylmethyl)carbamoyl)picolinate], for which the “AUC0-last hour (area under the curve)” value is given as “A (A = 0-1,000 ng/mL)”.

Turning to `C=Cc1cc(C(=O)Nc2ccc(C(=N)N)cc2)c(-c2ccc(C(=O)NCC3CC3)nc2C(=O)OCc2oc(=O)oc2C)cc1OC` [Compound 19d, (5-methyl-2-oxo-1,3-dioxol-4-yl)methyl 3-(2-((4-carbamimidoylphenyl)carbamoyl)-5-methoxy-4-vinylphenyl)-6-((cyclopropylmethyl)carbamoyl)picolinate], the “AUC0-last hour (area under the curve)” value is given as “A (A = 0-1,000 ng/mL)”.

For `C=Cc1cc(C(=O)Nc2ccc(C(=N)NC(=O)OC(C)OC(C)=O)cc2)c(-c2ccc(C(=O)NCC3CC3)nc2C(=O)O)cc1OC` (stereo not drawn) [Compound 23f, 3-(2-((4-(N-((1-acetoxyethoxy)carbonyl)carbamimidoyl)phenyl)carbamoyl)-5-methoxy-4-vinylphenyl)-6-((cyclopropylmethyl)carbamoyl)picolinic acid], the “AUC0-last hour (area under the curve)” value is on record as “B (B = 1,001-10,000 ng/mL)”.

Take `C=Cc1cc(C(=O)Nc2ccc(C(=N)N)cc2)c(-c2ccc(C(=O)NCC3CC3)nc2C(=O)OC(C)OC(=O)C(C)C)cc1OC` (stereo not drawn) [Compound 29d, 1-(isobutyryloxy)ethyl 3-(2-(4-carbamimidoylphenylcarbamoyl)-5-methoxy-4-vinylphenyl)-6-(cyclopropylmethylcarbamoyl)picolinate]: the “AUC0-last hour (area under the curve)” value is on record as “B (B = 1,001-10,000 ng/mL)”.

Consider `C=Cc1cc(C(=O)Nc2ccc(C(=N)NC(=O)OCCCCCC)cc2)c(-c2ccc(C(=O)NCC3CC3)nc2C(=O)OCOC(=O)[C@@H](N)C(C)C)cc1OC` [Compound 31b, (S)-((2-amino-3-methylbutanoyl)oxy)methyl 6-((cyclopropylmethyl)carbamoyl)-3-(2-((4-(N-((hexyloxy)carbonyl)carbamimidoyl)phenyl)carbamoyl)-5-methoxy-4-vinylphenyl)picolinate], for which the “AUC0-last hour (area under the curve)” value is “B (B = 1,001-10,000 ng/mL)”.

`C=Cc1cc(C(=O)Nc2ccc(C(=N)NC(=O)OCC)cc2)c(-c2ccc(C(=O)NCC3CC3)nc2C(=O)OCOC(=O)[C@@H](N)C(C)C)cc1OC` [Compound 32c, (S)-((2-amino-3-methylbutanoyl)oxy)methyl 6-((cyclopropylmethyl)carbamoyl)-3-(2-((4-(N-(ethoxycarbonyl)carbamimidoyl)phenyl)carbamoyl)-5-methoxy-4-vinylphenyl)picolinate]: the “AUC0-last hour (area under the curve)” value is on record as “B (B = 1,001-10,000 ng/mL)”.

Regarding `C=Cc1cc(C(=O)Nc2ccc(C(=N)NC(=O)OC(C)OC(=O)[C@@H](N)C(C)C)cc2)c(-c2ccc(C(=O)NCC3CC3)nc2C(=O)O)cc1OC` (stereo partly drawn) [Compound 33c, 3-(2-((4-(N-((1-(((S)-2-amino-3-methylbutanoyl)oxy)ethoxy)carbonyl)carbamimidoyl)phenyl)carbamoyl)-5-methoxy-4-vinylphenyl)-6-((cyclopropylmethyl)carbamoyl)picolinic acid], the “AUC0-last hour (area under the curve)” value is given as “B (B = 1,001-10,000 ng/mL)”.
